From ChEMBL document CHEMBL3853267 (Medchemcomm, 2016)

Experiments:
[1] = Activity at NET in rat synaptosomes obtained from whole brain minus striatum and cerebellum assessed as release of [3H]MPP+ by liquid scintillation counting method; format: subcellular
Rattus norvegicus [2] = organism: Rattus norvegicus; test: Selectivity ratio of EC50 for DAT in rat synaptosomes to EC50 for SERT in rat synaptosomes; format: subcellular
[3] = biological target: T1, 5-hydroxytryptamine receptor 2A (Homo sapiens, UniProt P28223); test: Agonist activity at human 5-HT2A receptor expressed in HEK293 cells by [3H]-inositol phosphate accumulation assay; format: cell-based
[4] = biological target: 5-hydroxytryptamine receptor 2B (Homo sapiens, UniProt P41595); test: Agonist activity at human 5-HT2B receptor expressed in HEK293 cells by [3H]-inositol phosphate accumulation assay; format: cell-based
[5] = biological target: T2, 5-hydroxytryptamine receptor 2C (Homo sapiens, UniProt P28335); test: Agonist activity at human 5-HT2C receptor expressed in HEK293 cells by [3H]-inositol phosphate accumulation assay; format: functional, cell-based
T2 sequence (P28335 whole entry): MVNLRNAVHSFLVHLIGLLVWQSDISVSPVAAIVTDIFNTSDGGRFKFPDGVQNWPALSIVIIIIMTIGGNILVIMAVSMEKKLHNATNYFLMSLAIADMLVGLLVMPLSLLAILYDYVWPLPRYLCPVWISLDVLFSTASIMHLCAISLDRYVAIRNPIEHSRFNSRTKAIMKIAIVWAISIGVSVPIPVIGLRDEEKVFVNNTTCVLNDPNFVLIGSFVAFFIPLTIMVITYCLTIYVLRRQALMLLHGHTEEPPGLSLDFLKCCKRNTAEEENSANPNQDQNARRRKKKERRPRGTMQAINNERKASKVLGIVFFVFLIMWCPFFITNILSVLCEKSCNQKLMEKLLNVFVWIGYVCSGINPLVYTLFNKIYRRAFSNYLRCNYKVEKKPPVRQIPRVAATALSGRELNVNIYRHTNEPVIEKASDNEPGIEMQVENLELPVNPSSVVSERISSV

[6] = biological target: T3, 5-hydroxytryptamine receptor 2C (Homo sapiens) (UniProt P28335); test: Agonist activity at human 5-HT2C receptor expressed in HEK293 cells by [3H]-inositol phosphate accumulation assay relative to 5-HT; format: functional, cell-based
T3 sequence (whole entry): T2 sequence (P28335 whole entry)

[7] = biological target: T1, 5-hydroxytryptamine receptor 2A; test: Agonist activity at human 5-HT2A receptor expressed in HEK293 cells assessed as induction of calcium mobilization incubated for 15 mins by calcium 5 dye-based fluorescence assay; format: cell-based
[8] = biological target: Sodium-dependent serotonin transporter (Rattus norvegicus, UniProt P31652); test: Activity at SERT in rat synaptosomes obtained from whole brain minus striatum and cerebellum assessed as release of [3H]5-HT by liquid scintillation counting method; format: subcellular
Rattus norvegicus [9] = organism: Rattus norvegicus; test: Selectivity ratio of EC50 for DAT in rat synaptosomes to EC50 for NET in rat synaptosomes; format: subcellular
[10] = biological target: T2, 5-hydroxytryptamine receptor 2C; test: Agonist activity at human 5-HT2C receptor expressed in HEK293 cells assessed as induction of calcium mobilization incubated for 15 mins by calcium 5 dye-based fluorescence assay; format: functional, cell-based
Rattus norvegicus [11] = organism: Rattus norvegicus; test: Selectivity ratio of EC50 for NET in rat synaptosomes to EC50 for DAT in rat synaptosomes; format: subcellular
Rattus norvegicus [12] = organism: Rattus norvegicus; test: Selectivity ratio of EC50 for NET in rat synaptosomes to EC50 for SERT in rat synaptosomes; format: subcellular

T1 sequence (P28223 whole entry): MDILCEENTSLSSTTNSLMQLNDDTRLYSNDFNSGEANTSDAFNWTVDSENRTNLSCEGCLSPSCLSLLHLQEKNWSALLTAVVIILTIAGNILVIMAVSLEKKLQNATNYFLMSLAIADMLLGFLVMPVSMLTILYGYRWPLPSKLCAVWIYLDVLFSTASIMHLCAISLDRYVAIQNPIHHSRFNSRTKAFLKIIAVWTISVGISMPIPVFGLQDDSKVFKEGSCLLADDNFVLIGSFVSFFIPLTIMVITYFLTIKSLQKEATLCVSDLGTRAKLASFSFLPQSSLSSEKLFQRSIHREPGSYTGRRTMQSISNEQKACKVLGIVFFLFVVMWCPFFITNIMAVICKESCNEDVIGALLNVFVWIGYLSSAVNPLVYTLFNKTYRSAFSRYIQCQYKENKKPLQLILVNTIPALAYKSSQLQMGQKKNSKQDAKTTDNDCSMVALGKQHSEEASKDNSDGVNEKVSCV
Sodium-dependent serotonin transporter, sequence (P31652 whole entry): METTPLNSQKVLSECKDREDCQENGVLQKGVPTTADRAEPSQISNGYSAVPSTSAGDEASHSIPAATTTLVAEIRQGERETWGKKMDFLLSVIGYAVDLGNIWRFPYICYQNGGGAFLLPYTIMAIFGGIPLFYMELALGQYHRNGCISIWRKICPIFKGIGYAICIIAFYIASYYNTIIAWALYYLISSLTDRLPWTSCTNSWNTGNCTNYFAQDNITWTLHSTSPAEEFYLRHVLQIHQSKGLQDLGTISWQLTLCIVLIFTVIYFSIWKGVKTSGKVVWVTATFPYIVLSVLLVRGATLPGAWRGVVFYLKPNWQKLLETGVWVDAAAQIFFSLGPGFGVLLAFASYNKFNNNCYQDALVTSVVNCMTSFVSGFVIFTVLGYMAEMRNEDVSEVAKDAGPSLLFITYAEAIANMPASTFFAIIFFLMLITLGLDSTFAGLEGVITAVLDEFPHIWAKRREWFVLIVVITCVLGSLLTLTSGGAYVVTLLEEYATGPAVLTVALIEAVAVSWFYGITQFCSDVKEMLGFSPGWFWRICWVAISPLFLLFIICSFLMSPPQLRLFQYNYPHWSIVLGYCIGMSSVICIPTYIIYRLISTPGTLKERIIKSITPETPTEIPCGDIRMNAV
5-hydroxytryptamine receptor 2B, sequence (P41595 whole entry): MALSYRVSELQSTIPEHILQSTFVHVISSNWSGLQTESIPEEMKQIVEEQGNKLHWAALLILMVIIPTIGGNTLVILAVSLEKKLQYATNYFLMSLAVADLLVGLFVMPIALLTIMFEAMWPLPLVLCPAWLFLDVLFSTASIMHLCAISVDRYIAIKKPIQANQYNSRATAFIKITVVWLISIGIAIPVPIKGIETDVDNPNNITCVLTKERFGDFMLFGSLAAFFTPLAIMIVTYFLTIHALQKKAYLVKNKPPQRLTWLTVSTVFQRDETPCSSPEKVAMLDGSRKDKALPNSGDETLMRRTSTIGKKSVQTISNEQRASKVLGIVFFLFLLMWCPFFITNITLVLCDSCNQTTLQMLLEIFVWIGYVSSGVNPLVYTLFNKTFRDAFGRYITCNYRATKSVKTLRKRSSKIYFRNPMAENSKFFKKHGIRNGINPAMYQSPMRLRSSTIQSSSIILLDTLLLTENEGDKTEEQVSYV

## CC(N)C/C=C/c1ccccc1 (racemic)
[1]
  EC50: 239 nM
Rattus norvegicus [2]
  Ratio EC50: 5

## CC(N)Cc1ccc2ccccc2c1 (stereo not drawn)
[3]
  EC50: 466 nM
[4]
  EC50: 40 nM
[5]
  EC50: 2.3 nM
[6]
  Emax: 20%

## C[C@@H](N)CC#Cc1ccccc1
[1]
  EC50: 496 nM
[7]
  EC50: > 10000 nM
Rattus norvegicus [2]
  Ratio EC50: 2.3

## CC(N)/C=C/c1ccccc1 (stereo not drawn)
[8]
  EC50: > 10000 nM
[1]
  EC50: 308 nM
Rattus norvegicus [9]
  Ratio EC50: 2.2

## CC(N)/C=C\c1ccccc1 (stereo not drawn)
[8]
  EC50: > 10000 nM
[1]
  EC50: 301 nM
Rattus norvegicus [9]
  Ratio EC50: 3.7

## C[C@@H](N)C/C=C/c1ccccc1
[1]
  EC50: 279 nM
[7]
  EC50: > 10000 nM
Rattus norvegicus [2]
  Ratio EC50: 5

## C[C@H](N)C/C=C\c1ccccc1
[8]
  EC50: 663 nM
[1]
  EC50: 170 nM
[10]
  EC50: > 10000 nM

## C[C@H](N)CC#Cc1ccccc1
[1]
  EC50: 784 nM

## CC(N)CC#Cc1ccccc1 (racemic)
[1]
  EC50: 2980 nM
Rattus norvegicus [2]
  Ratio EC50: 2.6
Rattus norvegicus [11]
  Ratio EC50: 3

## CC(N)C/C=C\c1ccccc1 (racemic)
[1]
  EC50: 621 nM
Rattus norvegicus [2]
  Ratio EC50: 1.4

## C[C@@H](N)C/C=C\c1ccccc1
[1]
  EC50: 211 nM
Rattus norvegicus [2]
  Ratio EC50: 1.2
Rattus norvegicus [9]
  Ratio EC50: 6.7

## C[C@H](N)C/C=C/c1ccccc1
[1]
  EC50: 138 nM
Rattus norvegicus [2]
  Ratio EC50: 5
Rattus norvegicus [12]
  Ratio EC50: 3.5
